{"source": "PubChem BioAssay AID1963436", "about": "(Molecular Pharmacology Branch, DTP, NCI, 2024)", "system": "OVCAR-5 complex spheroid (HUVEC/MSC), viability % T/C", "assay": "Anticancer human tumor OVCAR-5 cell line growth inhibition [Asc];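 for all read-outs here: spheroids exposed to agents for 7 days before readout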;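 for viability, T/C: 100% = DMSO vehicle-treated wells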", "conditions": "for IC50: curve of first compound; for viability, T/C: stronger effect = lower value", "summary_of_the_method": "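Complex spheroids combining tumor cells with HUVEC endothelial cells and human MSCs, at 37 degrees C, 5% CO2; agents tested alone or combined, half-log dilutions from at or near clinical Cmax, or 10 microM if Cmax unknown.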"}
{"compound": "Cn1ncnc1[C@H]1c2n[nH]c(=O)c3cc(F)cc(c23)N[C@@H]1c1ccc(F)cc1", "note": "+ CNC(C)C(=O)NC1CN(S(=O)(=O)c2cccc(S(=O)(=O)N3CCC4CCC(C(=O)NC(c5ccccc5)c5ccccc5)N4C(=O)C(NC(=O)C(C)NC)C3)c2)CCC2CCC(C(=O)NC(c3ccccc3)c3ccccc3)N2C1=O", "values": [{"measurement": "IC50", "setting": "second compound 0.01 µM", "value": "> 100", "unit": "nM"}, {"measurement": "IC50", "setting": "second compound 0.0316 µM", "value": "> 100", "unit": "nM"}, {"measurement": "IC50", "setting": "second compound 0.1 µM", "value": "> 100", "unit": "nM"}, {"measurement": "IC50", "setting": "second compound 0.316 µM", "value": "> 100", "unit": "nM"}, {"measurement": "IC50", "setting": "second compound 1 µM", "value": "> 100", "unit": "nM"}, {"measurement": "viability, T/C", "setting": "second compound 0.01 µM, first compound 0.000316 µM", "value": 92.5, "unit": "%"}, {"measurement": "viability, T/C", "setting": "second compound 0.01 µM, first compound 0.001 µM", "value": 86.9, "unit": "%"}, {"measurement": "viability, T/C", "setting": "second compound 0.01 µM, first compound 0.00316 µM", "value": 85.9, "unit": "%"}, {"measurement": "viability, T/C", "setting": "second compound 0.01 µM, first compound 0.01 µM", "value": 84.3, "unit": "%"}, {"measurement": "viability, T/C", "setting": "second compound 0.01 µM, first compound 0.0316 µM", "value": 92.3, "unit": "%"}, {"measurement": "viability, T/C", "setting": "second compound 0.01 µM, first compound 0.1 µM", "value": 86.5, "unit": "%"}, {"measurement": "viability, T/C", "setting": "second compound 0.0316 µM, first compound 0.000316 µM", "value": 81.8, "unit": "%"}, {"measurement": "viability, T/C", "setting": "second compound 0.0316 µM, first compound 0.001 µM", "value": 77.6, "unit": "%"}, {"measurement": "viability, T/C", "setting": "second compound 0.0316 µM, first compound 0.00316 µM", "value": 84.5, "unit": "%"}, {"measurement": "viability, T/C", "setting": "second compound 0.0316 µM, first compound 0.01 µM", "value": 73.2, "unit": "%"}, {"measurement": "viability, T/C", "setting": "second compound 0.0316 µM, first compound 0.0316 µM", "value": 73.9, "unit": "%"}, {"measurement": "viability, T/C", "setting": "second compound 0.0316 µM, first compound 0.1 µM", "value": 74.6, "unit": "%"}, {"measurement": "viability, T/C", "setting": "second compound 0.1 µM, first compound 0.000316 µM", "value": 78.3, "unit": "%"}, {"measurement": "viability, T/C", "setting": "second compound 0.1 µM, first compound 0.001 µM", "value": 88.3, "unit": "%"}, {"measurement": "viability, T/C", "setting": "second compound 0.1 µM, first compound 0.00316 µM", "value": 81.6, "unit": "%"}, {"measurement": "viability, T/C", "setting": "second compound 0.1 µM, first compound 0.01 µM", "value": 71.7, "unit": "%"}, {"measurement": "viability, T/C", "setting": "second compound 0.1 µM, first compound 0.0316 µM", "value": 73.4, "unit": "%"}, {"measurement": "viability, T/C", "setting": "second compound 0.1 µM, first compound 0.1 µM", "value": 68.5, "unit": "%"}, {"measurement": "viability, T/C", "setting": "second compound 0.316 µM, first compound 0.000316 µM", "value": 81.5, "unit": "%"}, {"measurement": "viability, T/C", "setting": "second compound 0.316 µM, first compound 0.001 µM", "value": 85.8, "unit": "%"}, {"measurement": "viability, T/C", "setting": "second compound 0.316 µM, first compound 0.00316 µM", "value": 85.1, "unit": "%"}, {"measurement": "viability, T/C", "setting": "second compound 0.316 µM, first compound 0.01 µM", "value": 71.5, "unit": "%"}, {"measurement": "viability, T/C", "setting": "second compound 0.316 µM, first compound 0.0316 µM", "value": 80.7, "unit": "%"}, {"measurement": "viability, T/C", "setting": "second compound 0.316 µM, first compound 0.1 µM", "value": 74.8, "unit": "%"}, {"measurement": "viability, T/C", "setting": "second compound 1 µM, first compound 0.000316 µM", "value": 88.3, "unit": "%"}, {"measurement": "viability, T/C", "setting": "second compound 1 µM, first compound 0.001 µM", "value": 94.4, "unit": "%"}, {"measurement": "viability, T/C", "setting": "second compound 1 µM, first compound 0.00316 µM", "value": 78.6, "unit": "%"}, {"measurement": "viability, T/C", "setting": "second compound 1 µM, first compound 0.01 µM", "value": 72.7, "unit": "%"}, {"measurement": "viability, T/C", "setting": "second compound 1 µM, first compound 0.0316 µM", "value": 76.1, "unit": "%"}, {"measurement": "viability, T/C", "setting": "second compound 1 µM, first compound 0.1 µM", "value": 69.1, "unit": "%"}]}
{"compound": "O=C(c1ccc(F)c(F)c1Nc1ccc(I)cc1F)N1CC(O)([C@@H]2CCCCN2)C1", "note": "+ CCN1C(C(=O)NC23CCC(C(=O)O)(CC2)CC3)C(c2cccc(Cl)c2F)C2(C(=O)Nc3cc(Cl)ccc32)C12CCCCC2", "values": [{"measurement": "IC50", "setting": "second compound 0.03 µM", "value": 96.2, "unit": "nM"}, {"measurement": "IC50", "setting": "second compound 0.0949 µM", "value": 81.4, "unit": "nM"}, {"measurement": "IC50", "setting": "second compound 0.3 µM", "value": 83.6, "unit": "nM"}, {"measurement": "IC50", "setting": "second compound 0.949 µM", "value": 81.6, "unit": "nM"}, {"measurement": "IC50", "setting": "second compound 3 µM", "value": 56.2, "unit": "nM"}, {"measurement": "viability, T/C", "setting": "second compound 0.03 µM, first compound 0.00316 µM", "value": 90.3, "unit": "%"}, {"measurement": "viability, T/C", "setting": "second compound 0.03 µM, first compound 0.01 µM", "value": 88.7, "unit": "%"}, {"measurement": "viability, T/C", "setting": "second compound 0.03 µM, first compound 0.0316 µM", "value": 68.4, "unit": "%"}, {"measurement": "viability, T/C", "setting": "second compound 0.03 µM, first compound 0.1 µM", "value": 49.4, "unit": "%"}, {"measurement": "viability, T/C", "setting": "second compound 0.03 µM, first compound 0.316 µM", "value": 41.6, "unit": "%"}, {"measurement": "viability, T/C", "setting": "second compound 0.03 µM, first compound 1 µM", "value": 34.6, "unit": "%"}, {"measurement": "viability, T/C", "setting": "second compound 0.0949 µM, first compound 0.00316 µM", "value": 99.7, "unit": "%"}, {"measurement": "viability, T/C", "setting": "second compound 0.0949 µM, first compound 0.01 µM", "value": 92.9, "unit": "%"}, {"measurement": "viability, T/C", "setting": "second compound 0.0949 µM, first compound 0.0316 µM", "value": 66.8, "unit": "%"}, {"measurement": "viability, T/C", "setting": "second compound 0.0949 µM, first compound 0.1 µM", "value": 45.5, "unit": "%"}, {"measurement": "viability, T/C", "setting": "second compound 0.0949 µM, first compound 0.316 µM", "value": 42.9, "unit": "%"}, {"measurement": "viability, T/C", "setting": "second compound 0.0949 µM, first compound 1 µM", "value": 32.1, "unit": "%"}, {"measurement": "viability, T/C", "setting": "second compound 0.3 µM, first compound 0.00316 µM", "value": 94.9, "unit": "%"}, {"measurement": "viability, T/C", "setting": "second compound 0.3 µM, first compound 0.01 µM", "value": 87.8, "unit": "%"}, {"measurement": "viability, T/C", "setting": "second compound 0.3 µM, first compound 0.0316 µM", "value": 66.3, "unit": "%"}, {"measurement": "viability, T/C", "setting": "second compound 0.3 µM, first compound 0.1 µM", "value": 45.4, "unit": "%"}, {"measurement": "viability, T/C", "setting": "second compound 0.3 µM, first compound 0.316 µM", "value": 43.9, "unit": "%"}, {"measurement": "viability, T/C", "setting": "second compound 0.3 µM, first compound 1 µM", "value": 33.2, "unit": "%"}, {"measurement": "viability, T/C", "setting": "second compound 0.949 µM, first compound 0.00316 µM", "value": 87.3, "unit": "%"}, {"measurement": "viability, T/C", "setting": "second compound 0.949 µM, first compound 0.01 µM", "value": 86.3, "unit": "%"}, {"measurement": "viability, T/C", "setting": "second compound 0.949 µM, first compound 0.0316 µM", "value": 64.2, "unit": "%"}, {"measurement": "viability, T/C", "setting": "second compound 0.949 µM, first compound 0.1 µM", "value": 46.8, "unit": "%"}, {"measurement": "viability, T/C", "setting": "second compound 0.949 µM, first compound 0.316 µM", "value": 40, "unit": "%"}, {"measurement": "viability, T/C", "setting": "second compound 0.949 µM, first compound 1 µM", "value": 32, "unit": "%"}, {"measurement": "viability, T/C", "setting": "second compound 3 µM, first compound 0.00316 µM", "value": 97.4, "unit": "%"}, {"measurement": "viability, T/C", "setting": "second compound 3 µM, first compound 0.01 µM", "value": 89.2, "unit": "%"}, {"measurement": "viability, T/C", "setting": "second compound 3 µM, first compound 0.0316 µM", "value": 61.5, "unit": "%"}, {"measurement": "viability, T/C", "setting": "second compound 3 µM, first compound 0.1 µM", "value": 37.6, "unit": "%"}, {"measurement": "viability, T/C", "setting": "second compound 3 µM, first compound 0.316 µM", "value": 37, "unit": "%"}, {"measurement": "viability, T/C", "setting": "second compound 3 µM, first compound 1 µM", "value": 28.8, "unit": "%"}]}
